Experimental data taken from patent US5955440A, “Macrolide LHRH antagonists” (Abbott Laboratories, priority 1998, dated 1999).

What was measured:
rat pituitary cells = target: T1, rat pituitary cells (Rattus norvegicus, UniProt P30969); assay: LH inhibition from rat pituitary cells, antagonist potency (pA2); format: cell-based; details: negative log of antagonist concentration shifting the leuprolide response curve to two-fold higher concentration, Table 2
T1 construct: endogenous in cells; host or cells: rat pituitary cells
T1 sequence (P30969 1-327): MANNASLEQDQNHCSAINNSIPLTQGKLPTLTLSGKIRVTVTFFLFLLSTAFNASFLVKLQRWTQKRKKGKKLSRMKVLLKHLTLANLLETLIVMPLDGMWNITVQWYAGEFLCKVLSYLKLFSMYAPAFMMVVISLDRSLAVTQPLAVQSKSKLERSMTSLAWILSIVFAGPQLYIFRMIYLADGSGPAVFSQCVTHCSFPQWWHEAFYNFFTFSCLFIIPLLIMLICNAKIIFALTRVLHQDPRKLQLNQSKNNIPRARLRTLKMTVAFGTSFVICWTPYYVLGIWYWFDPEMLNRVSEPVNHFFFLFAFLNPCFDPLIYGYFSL
Description: (§1) Representative compounds of the present invention were evaluated in in vitro tests for LHRH rat pituitary receptor binding (pKI) and for LH inhibition from rat pituitary cells for antagonist potency (pA2). The tests employed the methods detailed in F. Haviv, et al. J. Med. Chem., 32: 2340-2344 (1989). The receptor binding affinity (pKI) is the negative logarithm of the equilibrium dissociation constants.
The pA2 value is the negative logarithm of the concentration of antagonist which shifts the response curve produced by the agonist leuprolide to two-fold higher concentration. Leuprolide is the LHRH agonist having the structure pyro-Glu^1 -His^2 -Trp^3 -Ser^4 -Tyr^5 -D-Leu^6 -Leu^7 -Arg^8 -Pro^9 -NHEt and is disclosed and claimed in U.S. Pat. No. 4,005,063. Typically pA2 values of 7.0 or greater are indicative of good LHRH antagonist potency.

[1] = target: T2, LHRH rat pituitary receptor (Rattus norvegicus, UniProt P30969); assay: LHRH rat pituitary receptor binding (pKI); details: negative logarithm of the equilibrium dissociation constants; for Ki: Table 1, read-out: receptor binding affinity (pKI) (converted); for receptor binding affinity (pKI): Table 1
T2 construct: from tissue; host or cells: rat pituitary
T2 sequence (P30969 1-327): T1 sequence (P30969 1-327)
Description: as §1

Row | Kb (rat pituitary cells) | Ki [1] | pA2 (rat pituitary cells) | receptor binding affinity (pKI) [1] | Compound
1 | 0.794 nM | 0.813 nM | – | – | CC[C@H]1OC(=O)[C@H](C)[C@@H](O[C@H]2C[C@@](C)(OC)[C@@H](O)[C@H](C)O2)[C@H](C)[C@@H](O[C@@H]2O[C@H](C)C[C@H](N(C)C3CCCC3)[C@H]2O)[C@](C)(OC)C[C@@H](C)C(=O)[C@H](C)[C@H]2N(CCc3ccc(Cl)c(Cl)c3)C(=O)O[C@]12C [Example 1, 3'-N-Desmethyl-3'-N-cyclopentyl-11-deoxy-11-[carboxy-(3,4-dichlorophenethylamino)]-6-O-methyl-erythromycin A 11,12-(cyclic carbamate)]
2 | – | – | 8.60 | 9.13 | CCCN(C)[C@H]1C[C@@H](C)O[C@@H](O[C@@H]2[C@@H](C)[C@H](O[C@H]3C[C@@](C)(OC)[C@@H](O)[C@H](C)O3)[C@@H](C)C(=O)O[C@H](CC)[C@@]3(C)OC(=O)N(CCc4ccc(Cl)c(Cl)c4)[C@@H]3[C@@H](C)C(=O)[C@H](C)C[C@@]2(C)OC)[C@@H]1O [Example 3, 3'-N-Desmethyl-3'-N-n-propyl-11-deoxy-11-[carboxy-(3,4-dichlorophenethylamino)]-6-O-methyl-erythromycin A 11,12-(cyclic carbamate)]
3 | 32.4 nM | 3.98 nM | – | – | CCCN(C)[C@H]1C[C@@H](C)O[C@@H](O[C@@H]2[C@@H](C)[C@H](O[C@H]3C[C@@](C)(OC)[C@@H](O)[C@H](C)O3)[C@@H](C)C(=O)O[C@H](CC)[C@@]3(C)OC(=O)N(CCc4ccc(Cl)c(F)c4)[C@@H]3[C@@H](C)C(=O)[C@H](C)C[C@@]2(C)OC)[C@@H]1O [Example 16, 3'-N-Desmethyl-3'-N-n-propyl-11-deoxy-11-[carboxy-(4-chloro-3-fluorophenethylamino)]-6-O-methyl-erythromycin A 11,12-(cyclic carbamate)]
4 | – | – | 7.53 | 8.49 | CC[C@H]1OC(=O)[C@H](C)[C@@H](O[C@H]2C[C@@](C)(OC)[C@@H](O)[C@H](C)O2)[C@H](C)[C@@H](O[C@@H]2O[C@H](C)C[C@H](N(C)C3CCC3)[C@H]2O)[C@](C)(OC)C[C@@H](C)C(=O)[C@H](C)[C@H]2N(CCc3ccc(Cl)cc3)C(=O)O[C@]12C [Example 20]
5 | 55 nM | 6.17 nM | – | – | CC[C@H]1OC(=O)[C@H](C)[C@@H](O[C@H]2C[C@@](C)(OC)[C@@H](O)[C@H](C)O2)[C@H](C)[C@@H](O[C@@H]2O[C@H](C)C[C@H](N(C)CC)[C@H]2O)[C@](C)(OC)C[C@@H](C)C(=O)[C@H](C)[C@H]2N(CCc3ccc(Cl)cc3)C(=O)O[C@]12C [Example 21, 3'-N-Desmethyl-3'-N-ethyl-11-deoxy-11-[carboxy-(4-chlorophenethylamino)]-6-O-methyl-erythromycin A 11,12-(cyclic carbamate)]
6 | 30.2 nM | 4.47 nM | – | – | CC[C@H]1OC(=O)[C@H](C)[C@@H](O[C@H]2C[C@@](C)(OC)[C@@H](O)[C@H](C)O2)[C@H](C)[C@@H](O[C@@H]2O[C@H](C)C[C@H](N(C)C(C)C)[C@H]2O)[C@](C)(OC)C[C@@H](C)C(=O)[C@H](C)[C@H]2N(CCc3ccc(Cl)cc3)C(=O)O[C@]12C [Example 22, 3'-N-Desmethyl-3'-N-isopropyl-11-deoxy-11-[carboxy-(4-chlorophenethylamino)]-6-O-methyl-erythromycin A 11,12-(cyclic carbamate)]
7 | 50.1 nM | 6.76 nM | – | – | CC[C@H]1OC(=O)[C@H](C)[C@@H](O[C@H]2C[C@@](C)(OC)[C@@H](O)[C@H](C)O2)[C@H](C)[C@@H](O[C@@H]2O[C@H](C)C[C@H](N(C)C3CCCC3)[C@H]2O)[C@](C)(OC)C[C@@H](C)C(=O)[C@H](C)[C@H]2N(CCc3ccc(Cl)cc3)C(=O)O[C@]12C [Example 23, 3'-N-Desmethyl-3'-N-cyclopentyl-11-deoxy-11-[carboxy-(4-chlorophenethylamino)]-6-O-methyl-erythromycin A 11,12-(cyclic carbamate)]
8 | 37.2 nM | 4.17 nM | – | – | CCCN(C)[C@H]1C[C@@H](C)O[C@@H](O[C@@H]2[C@@H](C)[C@H](O[C@H]3C[C@@](C)(OC)[C@@H](O)[C@H](C)O3)[C@@H](C)C(=O)O[C@H](CC)[C@@]3(C)OC(=O)N(CCc4cccc(Cl)c4)[C@@H]3[C@@H](C)C(=O)[C@H](C)C[C@@]2(C)OC)[C@@H]1O [Example 25, 3'-N-Desmethyl-3'-N-n-propyl-11-deoxy-11-[carboxy-(3-chlorophenethylamino)]-6-O-methyl-erythromycin A 11,12-(cyclic carbamate)]
9 | 2.19 nM | 1.48 nM | – | – | CC[C@H]1OC(=O)[C@H](C)[C@@H](O[C@H]2C[C@@](C)(OC)[C@@H](O)[C@H](C)O2)[C@H](C)[C@@H](O[C@@H]2O[C@H](C)C[C@H](N(C)C3CCCC3)[C@H]2O)[C@](C)(OC)C[C@@H](C)C(=O)[C@H](C)[C@H]2N(CCc3ccc(F)c(Cl)c3)C(=O)O[C@]12C [Example 26, 3'-N-Desmethyl-3'-N-cyclopentyl-11-deoxy-11-[carboxy-(3-chloro-4-fluorophenethylamino)]-6-O-methyl-erythromycin A 11,12-(cyclic carbamate)]
10 | 3.8 nM | 1.55 nM | – | – | CC[C@H]1OC(=O)[C@H](C)[C@@H](O[C@H]2C[C@@](C)(OC)[C@@H](O)[C@H](C)O2)[C@H](C)[C@@H](O[C@@H]2O[C@H](C)C[C@H](N(C)C3CCC3)[C@H]2O)[C@](C)(OC)C[C@@H](C)C(=O)[C@H](C)[C@H]2N(CCc3ccc(F)c(Cl)c3)C(=O)O[C@]12C [Example 27, 3'-N-Desmethyl-3'-N-cyclobutyl-11-deoxy-11-[carboxy-(3-chloro-4-fluorophenethylamino)]-6-O-methyl-erythromycin A 11,12-(cyclic carbamate)]
11 | 3.02 nM | 0.324 nM | – | – | CC[C@H]1OC(=O)[C@H](C)[C@@H](O[C@H]2C[C@@](C)(OC)[C@@H](O)[C@H](C)O2)[C@H](C)[C@@H](O[C@@H]2O[C@H](C)C[C@H](N(C)C(C)C)[C@H]2O)[C@](C)(OC)C[C@@H](C)C(=O)[C@H](C)[C@H]2N(CCc3ccc(F)c(Cl)c3)C(=O)O[C@]12C [Example 28, 3'-N-Desmethyl-3'-N-isopropyl-11-deoxy-11-[carboxy-(3-chloro-4-fluorophenethylamino)]-6-O-methyl-erythromycin A 11,12-(cyclic carbamate)]
12 | 1.07 nM | 0.537 nM | – | – | CC[C@H]1OC(=O)[C@H](C)[C@@H](O[C@H]2C[C@@](C)(OC)[C@@H](O)[C@H](C)O2)[C@H](C)[C@@H](O[C@@H]2O[C@H](C)C[C@H](N(C)CC3CC3)[C@H]2O)[C@](C)(OC)C[C@@H](C)C(=O)[C@H](C)[C@H]2N(CCc3ccc(F)c(Cl)c3)C(=O)O[C@]12C [Example 29, 3'-N-Desmethyl-3'-N-cyclopropylmethyl-11-deoxy-11-(3-chloro-4-fluorophenethylamino)-6-O-methyl-erythromycin A 11,12-(cyclic carbamate)]
13 | 5.25 nM | 0.513 nM | – | – | CC[C@H]1OC(=O)[C@H](C)[C@@H](O[C@H]2C[C@@](C)(OC)[C@@H](O)[C@H](C)O2)[C@H](C)[C@@H](O[C@@H]2O[C@H](C)C[C@H](N(C)C3CCC3)[C@H]2O)[C@](C)(OC)C[C@@H](C)C(=O)[C@H](C)[C@H]2N(CCc3ccc(F)c(F)c3)C(=O)O[C@]12C [Example 30, 3'-N-Desmethyl-3'-N-cyclobutyl-11-deoxy-11-[carboxy-(3,4-difluorophenethylamino)]-6-O-methyl-erythromycin A 11,12-(cyclic carbamate)]
